Measurements as given in patent publication US20240116985A1, “STAPLED PEPTIDES AND METHODS THEREOF” (priority 2020, published 2024).
Like-named read-outs stand apart in the source and are kept apart here.

Experiments:
[1] = tested on: TCF/LEF luciferase Reporter in DLD1 cells; test: TCF reporter assay (DLD1 TCF/LEF luciferase reporter, Bright-Glo); format: cell-based; settings: read-out: DLD1 4% Abs IC50
Method in brief: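 Readouts: Bright-Glo luciferase for reporter signal and CellTiter-Glo for cell viability, with absolute IC50 derived. The reporter clone came from lentiviral TCF/LEF-luciferase transduction of DLD1 cells, seeded 5000 cells/well in RPMI with 4% FBS and exposed overnight to serially diluted compounds.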

[2] = biological target: T1, full-length beta-Catenin (Uniprot ID P35222) (Homo sapiens, UniProt P35222); test: Fluorescence polarization IC50 (beta-catenin / 5FAM-TCF4 10-53 competition); format: binding; settings: fluorescence polarization; read-out: beta-Catenin FP IC50
T1 construct: 10 nM full-length beta-Catenin (Uniprot ID P35222)
T1 sequence (P35222 1-781): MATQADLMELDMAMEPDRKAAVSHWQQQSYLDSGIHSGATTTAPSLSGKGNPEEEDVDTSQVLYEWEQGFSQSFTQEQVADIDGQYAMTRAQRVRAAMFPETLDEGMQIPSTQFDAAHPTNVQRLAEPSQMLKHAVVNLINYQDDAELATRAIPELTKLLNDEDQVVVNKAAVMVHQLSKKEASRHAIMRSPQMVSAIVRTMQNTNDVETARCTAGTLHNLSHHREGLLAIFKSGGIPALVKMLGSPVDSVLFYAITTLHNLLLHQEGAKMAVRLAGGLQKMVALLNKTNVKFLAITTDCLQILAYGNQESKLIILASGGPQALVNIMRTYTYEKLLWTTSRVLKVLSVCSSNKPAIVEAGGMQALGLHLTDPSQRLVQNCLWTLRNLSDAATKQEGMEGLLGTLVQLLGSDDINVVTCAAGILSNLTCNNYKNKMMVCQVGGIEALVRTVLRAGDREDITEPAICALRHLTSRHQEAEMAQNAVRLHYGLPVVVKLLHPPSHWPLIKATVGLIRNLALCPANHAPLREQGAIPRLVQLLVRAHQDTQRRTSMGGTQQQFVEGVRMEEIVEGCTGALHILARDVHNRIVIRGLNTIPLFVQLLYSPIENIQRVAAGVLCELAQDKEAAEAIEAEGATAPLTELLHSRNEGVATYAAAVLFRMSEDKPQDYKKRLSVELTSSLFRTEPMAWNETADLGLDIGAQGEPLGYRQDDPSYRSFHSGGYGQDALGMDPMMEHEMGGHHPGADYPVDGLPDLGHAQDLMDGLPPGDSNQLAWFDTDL

[3] = biological target: T2, beta-catenin/TCF4 engagement (Homo sapiens, UniProt P35222); test: Nano-BRET target engagement assay (B-cat-Halo & TCF4-Luc in HEK293 cells); format: cell-based; settings: read-out: NanoBRET Abs IC50
T2 construct: expressed in transfected cells; host or cells: HEK293
T2 sequence (P35222 1-781): T1 sequence (P35222 1-781)

[4] = DLD1 reporter assay, 4%, absolute IC50

| SMILES | IC50 [1, 4] [µM] | IC50 [2] [µM] | IC50 ([3]; absolute IC50) [µM] | IC50 ([1]; DLD1 4%) [µM] | IC50 [3] [µM] |
| --- | --- | --- | --- | --- | --- |
| CCCC[C@@H]1NC(=O)[C@H](Cc2cccc(C(=O)O)c2)NC(=O)[C@H](CC(=O)O)NC(=O)C2(CCCC=CCCCOC(=O)N3CC[C@@](C(=O)N[C@@H](Cc4ccccc4Cl)C(=O)N[C@@H](Cc4csc5ccccc45)C(=O)N[C@@H](CCC(N)=O)C(N)=O)(C3)NC(=O)[C@H](CC(C)C)NC(=O)[C@H](Cc3ccccc3)NC(=O)[C@H](C)NC1=O)CCCC=CC[C@]1(CCCN1C(C)=O)C(=O)N[C@@H](CC(=O)O)C(=O)N[C@@H](CC(C)(C)C)C(=O)N2 (stereo partly drawn) [I-1685, Ac-PL3-Asp-Npg-B5-Asp-3COOHF-nLeu-Ala-Phe-Leu-PyrS2-2C1F-BztA-Gln-NH2] | 1.3 | 0.023 | 3.5 | – | – |
| CC(=O)N1CCC[C@]12CC=CCCCC1(CCCC=CCCCOC(=O)N3CC[C@@](C(=O)N[C@@H](Cc4ccsc4)C(=O)N[C@@H](Cc4csc5ccccc45)C(=O)N[C@H](C(N)=O)[C@@H](C)O)(C3)NC(=O)[C@H](CC(C)C)NC(=O)[C@H](Cc3ccccc3)NC(=O)[C@H](C)NC(=O)[C@H](C)NC(=O)[C@H](CN(CC(=O)O)CC(F)(F)F)NC(=O)[C@H](CC(=O)O)NC1=O)NC(=O)[C@H](CC(C)(C)C)NC(=O)[C@H](CC(=O)O)NC2=O (stereo partly drawn) [I-1706, Ac-PL3-Asp-Npg-B5-Asp-TfeGA-Ala-Ala-Phe-Leu-PyrS2-3Thi-BztA-Thr-NH2] | 2.7 | 0.024 | 4.8 | – | – |
| CC(=O)NCCCC[C@H](NC(=O)[C@H](Cc1csc2ccccc12)NC(=O)[C@H](Cc1ccsc1)NC(=O)[C@]12CCN(C1)C(=O)OCCCC=CCCCC1(CCCC=CC[C@]3(CCCN3C(C)=O)C(=O)N[C@@H](CC(=O)O)C(=O)N[C@@H](CC(C)(C)C)C(=O)N1)C(=O)N[C@@H](CC(=O)O)C(=O)N[C@@H](CN(CC(=O)O)CC(F)(F)F)C(=O)N[C@@H](C)C(=O)N[C@@H](C)C(=O)N[C@@H](Cc1ccccc1)C(=O)N[C@@H](CC(C)C)C(=O)N2)C(N)=O (stereo partly drawn) [I-1709, Ac-PL3-Asp-Npg-B5-Asp-TfeGA-Ala-Ala-Phe-Leu-PyrS2-3Thi-BztA-AcLys-NH2] | 3.9 | 0.014 | 6.2 | – | – |
| CC(=O)N1CCC[C@]12CC=CCCCC1(CCCC=CCCCOC(=O)N3CC[C@@](C(=O)N[C@@H](Cc4ccsc4)C(=O)N[C@@H](Cc4csc5ccccc45)C(=O)N[C@@H](C)C(N)=O)(C3)NC(=O)[C@H](CC(C)C)NC(=O)[C@H](Cc3ccccc3)NC(=O)[C@H](C)NC(=O)[C@H](C)NC(=O)[C@H](CN(CC(=O)O)CC(F)(F)F)NC(=O)[C@H](CC(=O)O)NC1=O)NC(=O)[C@H](CC(C)(C)C)NC(=O)[C@H](CC(=O)O)NC2=O (stereo partly drawn) [I-1710, Ac-PL3-Asp-Npg-B5-Asp-TfeGA-Ala-Ala-Phe-Leu-PyrS2-3Thi-BztA-Ala-NH2] | 1.9 | 0.022 | 3.9 | – | – |
| CC(=O)N1CCC[C@]12CC=CCCCC1(CCCC=CCCCOC(=O)N3CC[C@@](C(=O)N[C@@H](Cc4ccsc4)C(=O)N[C@@H](Cc4csc5ccccc45)C(=O)N[C@@H](C)C(N)=O)(C3)NC(=O)[C@H](CC(C)C)NC(=O)[C@H](Cc3ccccc3)NC(=O)[C@H](C)NC(=O)C(C)(C)NC(=O)[C@H](Cc3cccc(C(=O)O)c3)NC(=O)[C@H](CC(=O)O)NC1=O)NC(=O)[C@H](CC(C)(C)C)NC(=O)[C@H](CC(=O)O)NC2=O (stereo partly drawn) [I-1920, Ac-PL3-Asp-Npg-B5-Asp-3COOHF-Aib-Ala-Phe-Leu-PyrS2-3Thi-BztA-Ala-NH2] | – | 0.018 | – | 1.2 | 3.1 |
| CC(=O)N1CCC[C@]12CC=CCCCC1(CCCC=CCCCOC(=O)N3CC[C@@](C(=O)N[C@@H](Cc4ccsc4)C(=O)N[C@@H](Cc4csc5ccccc45)C(=O)N[C@@H](CC(N)=O)C(=O)N[C@@H](C)C(=O)N[C@@H](C)C(=O)N[C@H](C)C(N)=O)(C3)NC(=O)[C@H](CC(C)C)NC(=O)[C@H](Cc3ccccc3)NC(=O)[C@H](C)NC(=O)[C@H](C)NC(=O)[C@H](Cc3cccc(C(=O)O)c3)NC(=O)[C@H](CC(=O)O)NC1=O)NC(=O)[C@H](CC(C)(C)C)NC(=O)[C@H](CC(=O)O)NC2=O (stereo partly drawn) [I-2047, Ac-PL3-Asp-Npg-B5-Asp-3COOHF-Ala-Ala-Phe-Leu-PyrS2-3Thi-BztA-Asn-Ala-Ala-dAla-NH2] | – | 0.011 | – | 1.3 | 2.6 |
| CC(=O)N1CCC[C@]12CC=CCCCC1(CCCC=CCCCOC(=O)N3CC[C@@](C(=O)N[C@@H](Cc4ccsc4)C(=O)N[C@@H](Cc4csc5ccccc45)C(=O)N[C@@H](CCS(C)(=O)=O)C(N)=O)(C3)NC(=O)[C@H](CC(C)C)NC(=O)[C@H](Cc3ccccc3)NC(=O)[C@H](C)NC(=O)[C@H](C)NC(=O)[C@H](Cc3cccc(C(=O)O)c3)NC(=O)[C@H](CC(=O)O)NC1=O)NC(=O)[C@H](CC(C)(C)C)NC(=O)[C@H](CC(=O)O)NC2=O (stereo partly drawn) [I-2061, Ac-PL3-Asp-Npg-B5-Asp-3COOHF-Ala-Ala-Phe-Leu-PyrS2-3Thi-BztA-Met2O-NH2] | – | 0.013 | – | 1.8 | 1.9 |

These reach a lower IC50 [2]. Values come first.

| IC50 [1, 4] [µM] | IC50 [2] [µM] | IC50 ([3]; absolute IC50) [µM] | IC50 ([1]; DLD1 4%) [µM] | IC50 [3] [µM] | SMILES |
| --- | --- | --- | --- | --- | --- |
| – | 0.009 | – | 5.8 | 12.3 | CC(=O)N1CCC[C@]12CC=CCCCC1(CCCC=CCCCOC(=O)N3CC[C@@](C(=O)N[C@@H](Cc4ccsc4)C(=O)N[C@@H](Cc4csc5ccccc45)C(=O)N[C@@H](CCC(N)=O)C(N)=O)(C3)NC(=O)[C@H](CC(C)C)NC(=O)[C@H](Cc3ccccc3)NC(=O)[C@H](C)NC(=O)[C@H](C)NC(=O)[C@H](CCn3cc(CC(C)(C)C(=O)O)nn3)NC(=O)[C@H](CC(=O)O)NC1=O)NC(=O)[C@H](CC(C)(C)C)NC(=O)[C@H](CC(=O)O)NC2=O (stereo partly drawn) [I-2077, Ac-PL3-Asp-Npg-B5-Asp-[CH2CMe2CO2H]TriAzDab-Ala-Ala-Phe-Leu-PyrS2-3Thi-BztA-Gln-NH2] |
| – | 0.005 | – | 6.5 | 4 | CC(=O)N1CCC[C@]12CC=CCCCC1(CCCC=CCCCOC(=O)N3CC[C@@](C(=O)N[C@@H](Cc4ccsc4)C(=O)N[C@@H](Cc4csc5ccccc45)C(=O)N[C@@H](C)C(N)=O)(C3)NC(=O)[C@H](CC(C)C)NC(=O)[C@H](Cc3ccccc3)NC(=O)[C@H](C)NC(=O)[C@H](CCC(N)=O)NC(=O)[C@H](Cc3cccc(C(=O)O)c3)NC(=O)[C@H](CC(=O)O)NC1=O)NC(=O)[C@H](CC(C)(C)C)NC(=O)[C@H](CC(=O)O)NC2=O (stereo partly drawn) [I-1918, Ac-PL3-Asp-Npg-B5-Asp-3COOHF-Gln-Ala-Phe-Leu-PyrS2-3Thi-BztA-Ala-NH2] |
| – | 0.005 | – | 9.7 | 9.2 | CC(=O)N1CCC[C@]12CC=CCCCC1(CCCC=CCCCOC(=O)N3CC[C@@](C(=O)N[C@@H](Cc4ccsc4)C(=O)N[C@@H](Cc4csc5ccccc45)C(=O)N[C@@H](CCC(N)=O)C(N)=O)(C3)NC(=O)[C@H](CC(C)C)NC(=O)[C@H](Cc3ccccc3)NC(=O)[C@H](C)NC(=O)[C@H](C)NC(=O)[C@H](Cn3cc(CC(=O)O)nn3)NC(=O)[C@H](CC(=O)O)NC1=O)NC(=O)[C@H](CC(C)(C)C)NC(=O)[C@H](CC(=O)O)NC2=O (stereo partly drawn) [I-2084, Ac-PL3-Asp-Npg-B5-Asp-[CH2CO2H]TriAzDap-Ala-Ala-Phe-Leu-PyrS2-3Thi-BztA-Gln-NH2] |
